Reference: patent US11325889B2, “Substituted 3-((3-aminophenyl)amino)piperidine-2,6-dione compounds, compositions thereof, and methods of treatment therewith” (Celgene Corporation, priority 2018, dated 2022)

Target: T1, AR protein in VCaP cells (Homo sapiens, UniProt P10275)
T1 construct: endogenous in cells; host or cells: VCaP cells
T1 sequence (P10275 1-920): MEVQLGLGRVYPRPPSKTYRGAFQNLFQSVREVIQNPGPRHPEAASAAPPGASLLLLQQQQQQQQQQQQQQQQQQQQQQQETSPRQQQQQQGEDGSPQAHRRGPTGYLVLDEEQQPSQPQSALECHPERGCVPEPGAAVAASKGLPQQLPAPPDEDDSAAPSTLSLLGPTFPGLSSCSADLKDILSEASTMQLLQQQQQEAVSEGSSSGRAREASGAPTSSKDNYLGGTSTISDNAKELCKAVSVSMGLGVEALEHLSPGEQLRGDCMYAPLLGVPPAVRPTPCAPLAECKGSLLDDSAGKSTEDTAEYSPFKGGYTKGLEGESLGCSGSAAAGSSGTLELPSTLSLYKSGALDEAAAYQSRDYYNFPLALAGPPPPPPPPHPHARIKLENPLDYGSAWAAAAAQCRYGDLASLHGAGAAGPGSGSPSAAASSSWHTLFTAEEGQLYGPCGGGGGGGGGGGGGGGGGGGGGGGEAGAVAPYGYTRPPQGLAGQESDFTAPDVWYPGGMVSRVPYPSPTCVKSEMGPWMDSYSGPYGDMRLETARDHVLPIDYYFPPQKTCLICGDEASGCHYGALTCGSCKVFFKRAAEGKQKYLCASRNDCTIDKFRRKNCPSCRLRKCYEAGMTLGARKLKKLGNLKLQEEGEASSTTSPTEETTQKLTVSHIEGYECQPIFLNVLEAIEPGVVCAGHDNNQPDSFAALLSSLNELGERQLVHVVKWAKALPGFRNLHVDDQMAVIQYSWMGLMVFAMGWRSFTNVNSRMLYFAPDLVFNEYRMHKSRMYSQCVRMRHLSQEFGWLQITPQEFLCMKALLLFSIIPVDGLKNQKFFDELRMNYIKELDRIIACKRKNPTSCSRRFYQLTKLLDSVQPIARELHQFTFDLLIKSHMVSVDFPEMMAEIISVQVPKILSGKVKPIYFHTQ
Assay: VCAP AR Degradation Assay (AR ELISA, 24 h)
Type: cell-based
Details: for Y (lowest measured AR level normalized to DMSO control): AR degradation efficiency; for DC50: concentration of compound when AR level = 50% of DMSO control, read-out: DC50
Experimental: VCAP AR Degradation Assay.
Test compounds were pre-dispensed into a Corning CellBind 96-well clear bottom plate (Cat #3300) using an acoustic dispenser to make a 10-point concentration series at 1:3 dilution for each compound. The final top concentration of each compound was […]. DMSO at a final concentration of 0.1% was used as a control. VCaP cells cultured in DMEM with 8% fetal bovine serum (FBS) were seeded at 50K cells per well in a 200 μL volume into the compound plate and incubated at 37° C. in a CO2 incubator for 24 h. The medium was carefully removed from the cells and the plate was placed on ice. One hundred […] of ice-cold 1× cell lysis buffer from Cell Signaling Technologies (Cat #9803) was added to each well of the cells and the plate was incubated at 4° C. on a shaker for 1 h. Fifteen […] of cell lysate was used for AR ELISA detection using a PathScan Total Sandwich AR ELISA kit (Cell Signaling Technology, Cat #12580). AR levels in compound-treated wells were normalized to that of DMSO control and expressed as percent of control (PoC) (y). A Four Parameter Logistic Model (Sigmoidal Dose-Response Model) was used to determine the compound's DC50, and EC50, using the following equation: y=(A+((B−A)/(1+((C/x)^D)))) • A=YMin (lowest AR level normalized to DMSO control in response to compound • treatment, as determined by curve fit) • B=YMax (maximum AR level as determined by curve fit) • C=EC50 • D=Hill Slope • x=compound concentration • EC50=the concentration of compound when y=(YMax−YMin)/2 • DC50=the concentration of the compound when y=50% of DMSO control (50% AR degradation) • y=AR protein level normalized to DMSO control
The lowest measured AR level normalized to DMSO control in response to compound treatment, termed Y value, was used to characterize the compound-mediated AR degradation efficiency.

Row | SMILES | Y (lowest measured AR level normalized to DMSO control) | DC50 [nM]
1 | CCc1cc(N2C(=S)N(c3cnc(C#N)c(C(F)(F)F)c3)C(=O)C2(C)C)ccc1OCCC1CCN(CC(=O)Nc2cc(F)cc(NC3CCC(=O)NC3=O)c2)CC1 (centres unmarked) [Cmpd 16, 2-(4-(2-(4-(3-(6-cyano-5-(trifluoromethyl)pyridin-3-yl)-5,5-dimethyl-4-oxo-2-thioxoimidazolidin-1-yl)-2-ethylphenoxy)ethyl)piperidin-1-yl)-N-(3-(2,6-dioxopiperidin-3-ylamino)-5-fluorophenyl)acetamide] | * (0<Y<=25%) | < 100
2 | CCc1cc(N2C(=S)N(c3ccc(C#N)c(C(F)(F)F)c3)C(=O)C2(C)C)ccc1OCCC1CCN(CC(=O)Nc2cccc(NC3CCC(=O)NC3=O)c2)CC1 (centres unmarked) [Cmpd 17, 2-(4-(2-(4-(3-(4-cyano-3-(trifluoromethyl)phenyl)-5,5-dimethyl-4-oxo-2-thioxoimidazolidin-1-yl)-2-ethylphenoxy)ethyl)piperidin-1-yl)-N-(3-(2,6-dioxopiperidin-3-ylamino)phenyl)acetamide] | * (0<Y<=25%) | < 100
3 | CCc1cc(N2C(=S)N(c3ccc(C#N)c(C(F)(F)F)c3)C(=O)C2(C)C)ccc1OCCC1CCN(CC(=O)Nc2cc(NC3CCC(=O)NC3=O)ccc2F)CC1 (centres unmarked) [Cmpd 18, 2-(4-(2-(4-(3-(4-cyano-3-(trifluoromethyl)phenyl)-5,5-dimethyl-4-oxo-2-thioxoimidazolidin-1-yl)-2-ethylphenoxy)ethyl)piperidin-1-yl)-N-(5-(2,6-dioxopiperidin-3-ylamino)-2-fluorophenyl)acetamide] | * (0<Y<=25%) | 100 to 500
4 | CCc1cc(N2C(=S)N(c3ccc(C#N)c(C(F)(F)F)c3)C(=O)C2(C)C)ccc1OCCC1CCN(CC(=O)Nc2cc(F)cc(NC3CCC(=O)NC3=O)c2)CC1 (centres unmarked) [Cmpd 19, 2-(4-(2-(4-(3-(4-cyano-3-(trifluoromethyl)phenyl)-5,5-dimethyl-4-oxo-2-thioxoimidazolidin-1-yl)-2-ethylphenoxy)ethyl)piperidin-1-yl)-N-(3-(2,6-dioxopiperidin-3-ylamino)-5-fluorophenyl)acetamide] | * (0<Y<=25%) | 100 to 500
5 | CCc1cc(N2C(=S)N(c3ccc(C#N)c(C(F)(F)F)c3)C(=O)C2(C)C)ccc1OCCC1CCN(CC(=O)Nc2cc(Cl)cc(NC3CCC(=O)NC3=O)c2)CC1 (centres unmarked) [Cmpd 20, N-(3-chloro-5-(2,6-dioxopiperidin-3-ylamino)phenyl)-2-(4-(2-(4-(3-(4-cyano-3-(trifluoromethyl)phenyl)-5,5-dimethyl-4-oxo-2-thioxoimidazolidin-1-yl)-2-ethylphenoxy)ethyl)piperidin-1-yl)acetamide] | * (0<Y<=25%) | < 100
6 | CCc1cc(N2C(=S)N(c3ccc(C#N)c(C(F)(F)F)c3)C(=O)C2(C)C)ccc1OCCC1CCN([C@H](C)C(=O)Nc2cc(Cl)cc(NC3CCC(=O)NC3=O)c2)CC1 (stereo partly drawn) [Cmpd 21, (2R)-N-(3-chloro-5-(2,6-dioxopiperidin-3-ylamino)phenyl)-2-(4-(2-(4-(3-(4-cyano-3-(trifluoromethyl)phenyl)-5,5-dimethyl-4-oxo-2-thioxoimidazolidin-1-yl)-2-ethylphenoxy)ethyl)piperidin-1-yl)propanamide] | * (0<Y<=25%) | 100 to 500

The remaining lines, values ahead:

Row | Y (lowest measured AR level normalized to DMSO control) | DC50 [nM] | SMILES
7 | * (0<Y<=25%) | < 100 | CCc1cc(N2C(=S)N(c3cnc(C#N)c(C(F)(F)F)c3)C(=O)C2(C)C)ccc1OCCC1CCN(CC(=O)Nc2cc(Cl)cc(NC3CCC(=O)NC3=O)c2)CC1 (centres unmarked) [Cmpd 13, N-(3-chloro-5-(2,6-dioxopiperidin-3-ylamino)phenyl)-2-(4-(2-(4-(3-(6-cyano-5-(trifluoromethyl)pyridin-3-yl)-5,5-dimethyl-4-oxo-2-thioxoimidazolidin-1-yl)-2-ethylphenoxy)ethyl)piperidin-1-yl)acetamide]
8 | * (0<Y<=25%) | 100 to 500 | CCc1cc(N2C(=S)N(c3cnc(C#N)c(C(F)(F)F)c3)C(=O)C2(C)C)ccc1OCCC1CCN(CC(=O)Nc2cc(NC3CCC(=O)NC3=O)ccc2Cl)CC1 (centres unmarked) [Cmpd 14, N-(2-chloro-5-(2,6-dioxopiperidin-3-ylamino)phenyl)-2-(4-(2-(4-(3-(6-cyano-5-(trifluoromethyl)pyridin-3-yl)-5,5-dimethyl-4-oxo-2-thioxoimidazolidin-1-yl)-2-ethylphenoxy)ethyl)piperidin-1-yl)acetamide]
9 | * (0<Y<=25%) | < 100 | CCc1cc(N2C(=S)N(c3cnc(C#N)c(C(F)(F)F)c3)C(=O)C2(C)C)ccc1OCCC1CCN(CC(=O)Nc2cc(NC3CCC(=O)NC3=O)ccc2F)CC1 (centres unmarked) [Cmpd 15, 2-(4-(2-(4-(3-(6-cyano-5-(trifluoromethyl)pyridin-3-yl)-5,5-dimethyl-4-oxo-2-thioxoimidazolidin-1-yl)-2-ethylphenoxy)ethyl)piperidin-1-yl)-N-(5-(2,6-dioxopiperidin-3-ylamino)-2-fluorophenyl)acetamide]
10 | * (0<Y<=25%) | < 100 | CC(F)(F)c1cc(N2C(=S)N(c3cnc(C#N)c(C(F)(F)F)c3)C(=O)C2(C)C)ccc1OCCC1CCN(CC(=O)Nc2cc(F)cc(NC3CCC(=O)NC3=O)c2)CC1 (centres unmarked) [Cmpd 22, 2-(4-(2-(4-(3-(6-cyano-5-(trifluoromethyl)pyridin-3-yl)-5,5-dimethyl-4-oxo-2-thioxoimidazolidin-1-yl)-2-(1,1-difluoroethyl)phenoxy)ethyl)piperidin-1-yl)-N-(3-(2,6-dioxopiperidin-3-ylamino)-5-fluorophenyl)acetamide]
11 | * (0<Y<=25%) | < 100 | CCc1cc(N2C(=S)N(c3cnc(C#N)c(C(F)(F)F)c3)C(=O)C2(C)C)ccc1OCCC1CCN([C@@H](C)C(=O)Nc2cc(Cl)cc(NC3CCC(=O)NC3=O)c2)CC1 (stereo partly drawn) [Cmpd 23, (2S)-N-(3-chloro-5-(2,6-dioxopiperidin-3-ylamino)phenyl)-2-(4-(2-(4-(3-(6-cyano-5-(trifluoromethyl)pyridin-3-yl)-5,5-dimethyl-4-oxo-2-thioxoimidazolidin-1-yl)-2-ethylphenoxy)ethyl)piperidin-1-yl)propanamide]
12 | * (0<Y<=25%) | 100 to 500 | CC(F)(F)c1cc(N2C(=S)N(c3cnc(C#N)c(C(F)(F)F)c3)C(=O)C2(C)C)ccc1OCCC1CCN(CC(=O)Nc2cc(Cl)cc(NC3CCC(=O)NC3=O)c2)CC1 (centres unmarked) [Cmpd 24, N-(3-chloro-5-(2,6-dioxopiperidin-3-ylamino)phenyl)-2-(4-(2-(4-(3-(6-cyano-5-(trifluoromethyl)pyridin-3-yl)-5,5-dimethyl-4-oxo-2-thioxoimidazolidin-1-yl)-2-(1,1-difluoroethyl)phenoxy)ethyl)piperidin-1-yl)acetamide]
13 | * (0<Y<=25%) | < 100 | CCc1cc(N2C(=S)N(c3cnc(C#N)c(C(F)(F)F)c3)C(=O)C2(C)C)ccc1OCCC1CCN([C@H](C)C(=O)Nc2cc(Cl)cc(NC3CCC(=O)NC3=O)c2)CC1 (stereo partly drawn) [Cmpd 25, (2R)-N-(3-chloro-5-(2,6-dioxopiperidin-3-ylamino)phenyl)-2-(4-(2-(4-(3-(6-cyano-5-(trifluoromethyl)pyridin-3-yl)-5,5-dimethyl-4-oxo-2-thioxoimidazolidin-1-yl)-2-ethylphenoxy)ethyl)piperidin-1-yl)propanamide]
